What was measured:
Format in all cases: cell-based
mold [1] = assay: TAPPI T-487 fungal efficacy test on paper sheets, biocide added to pulp slurry; parameters: key: coverage; 8: 20% mold coverage; 9: 10% mold coverage; 10: no mold growth; conditions: average of three sheets
Experimental: (§1) The biocides can be evaluated in the following examples by adding to a 0.4 wt % pulp slurry in water (100% recycle) typically used for gypsum wallboard facing paper. The slurry is filtered through a screen to drain the water from the stock and the resulting paper mat is blotted, couched, and dried to form a paper sheet with a basis weight of approximately 40 lb/1000 ft2. Three sheets per condition are prepared. High Performance Liquid Chromatography (HPLC) is used to determine the amount of biocide present in each sheet. The paper sheets are evaluated for fungal growth via ASTM 3273, currently the industry standard for mold-resistant wallboard, as well as the standard TAPPI T-487 fungal efficacy test.
(§2) The values in Tables 1 and 2 below represent data from samples made substantially according to the preceding protocol. The average concentration of active biocide in the paper and the average test rating based on three paper sheets are shown. Based on tables 1 and 2, approximately 4-4.5 times more DIMTS active was needed in the paper sheet than OIT before no mold growth was observed throughout the entire testing period.
(§3) For ASTM 3273, a 4-week test, the following rating scale applies: • 0—100% mold coverage • 1—90% mold coverage • 2—80% mold coverage • 3—70% mold coverage • 4—60% mold coverage • 5—50% mold coverage • 6—40% mold coverage • 7—30% mold coverage • 8—20% mold coverage • 9—10% mold coverage • 10—no mold growth For TAPPI T-487, a 3-week test, the following rating scale applies: • 0—no mold growth • 1—25% mold coverage • 2—50% mold coverage • 3—75% mold coverage • 4—100% mold coverage

mold [2] = assay: ASTM 3273 fungal growth test on paper sheets, biocide added to pulp slurry; parameters: key to ASTM 3273 rating Week 1: 0: 100% mold coverage; 1: 90%; 2: 80%; 3: 70%; 4: 60%; 5: 50%; 6: 40%; 7: 30%; 8: 20%; 9: 10%; 10: no mold growth coverage; 8: 20% mold coverage; 9: 10% mold coverage; 10: no mold growth; key to ASTM 3273 rating Week 2 / ASTM 3273 rating Week 3 / ASTM 3273 rating Week 4: 100% mold coverage; 1: 90% mold coverage; 2: 80% mold coverage; 3: 70% mold coverage; 4: 60% mold coverage; 50% mold coverage; 6: 40% mold coverage; 7: 30% mold coverage; 8: 20% mold coverage; 9: 10% mold coverage; 10: no mold growth; conditions: for ASTM 3273 rating Week 1 / ASTM 3273 rating Week 2 / ASTM 3273 rating Week 3 / ASTM 3273 rating Week 4: average of three sheets
Experimental: as §1, §2, §3

mold [3] = assay: ASTM-G21 Fungal Resistant Test Method on paper handsheets; parameters: key: 0: None; Traces of growth (<10%); 2: Light growth (10-30%); Medium growth (30-60%); 4: Heavy growth (60-complete coverage); conditions: for Mold Resistance Rating Week 1 A / Mold Resistance Rating Week 2 A: replicate A; for Mold Resistance Rating Week 1 B / Mold Resistance Rating Week 2 B: replicate B
Experimental: Results are compared with paper hand sheets incorporating DIMTS in the same manner, as well as handsheets with no biocide added. Handsheets are formed using a commercial handsheet mold which makes sheets 8×8 inches in area. The weights of the handsheets are 11-12 lbs/1000 ft^2 representing the typical basis weight of just the liner (outer facing plys) of the multi-ply wallboard paper. The 3:1 carbendazim/IPBC blend is added to the paper slurry (0.7 wt %) prior to forming the handsheets. Recycled news print paper is used as the source of fiber for handsheets. High Performance Liquid Chromatography (HPLC) is used to determine the amount of biocide present in each sheet, however, this method is not capable of detecting the levels of IPBC in the handsheets, therefore only carbendazim values are reported in Table 4 as weight of active (mg) per kg of paper. The handsheets are evaluated for fungal resistance using ASTM G21 over a two-week test period. A and B represent replicate analyses of same handsheet in Table 4.

mold [4] = assay: TAPPI T-487 test on surface-treated paper; parameters: key to TAPPI T-487 rating Week 1 / TAPPI T-487 rating Week 2 / TAPPI T-487 rating Week 3: 100% mold coverage; 1: 90% mold coverage; 2: 80% mold coverage; 3: 70% mold coverage; 4: 60% mold coverage; 50% mold coverage; 6: 40% mold coverage; 7: 30% mold coverage; 8: 20% mold coverage; 9: 10% mold coverage; 10: no mold growth; conditions: surface treatment, average of three sheets
Experimental: The papers of this example were prepared via surface treatment. The values in Table 3 below represent the average concentration of active biocide in the paper and the average […]-487 test rating based on three paper sheets.

Cc1ccc(S(=O)(=O)C(I)I)cc1 [DIMTS, diiodomethyltolylsulfone]
7 (30% mold coverage): ASTM 3273 rating Week 3 (mold [2]; 660 ppm in paper sheet)
10: ASTM 3273 rating Week 1 (mold [2]; 370 ppm in paper sheet) | ASTM 3273 rating Week 1 (mold [2]; 660 ppm in paper sheet) | ASTM 3273 rating Week 1 (mold [2]; 1272 ppm in paper sheet) | ASTM 3273 rating Week 2 (mold [2]; 1272 ppm in paper sheet) | ASTM 3273 rating Week 3 (mold [2]; 1272 ppm in paper sheet) | ASTM 3273 rating Week 4 (mold [2]; 1272 ppm in paper sheet)
0: TAPPI T-487 rating Week 1 (mold [1]; 386 ppm in paper sheet) | TAPPI T-487 rating Week 1 (mold [1]; 553 ppm in paper sheet) | TAPPI T-487 rating Week 1 (mold [1]; 855 ppm in paper sheet) | TAPPI T-487 rating Week 2 (mold [1]; 855 ppm in paper sheet) | TAPPI T-487 rating Week 3 (mold [1]; 855 ppm in paper sheet) | Mold Resistance Rating Week 1 A (mold [3]; 354 ppm active in handsheet) | Mold Resistance Rating Week 1 B (mold [3]; 354 ppm active in handsheet) | Mold Resistance Rating Week 1 A (mold [3]; 732 ppm active in handsheet) | Mold Resistance Rating Week 1 B (mold [3]; 732 ppm active in handsheet) | Mold Resistance Rating Week 2 A (mold [3]; 732 ppm active in handsheet) | Mold Resistance Rating Week 2 B (mold [3]; 732 ppm active in handsheet) | Mold Resistance Rating Week 1 A (mold [3]; 748 ppm active in handsheet) | Mold Resistance Rating Week 1 B (mold [3]; 748 ppm active in handsheet) | Mold Resistance Rating Week 2 A (mold [3]; 748 ppm active in handsheet) | Mold Resistance Rating Week 2 B (mold [3]; 748 ppm active in handsheet) | TAPPI T-487 rating Week 1 (mold [4]; 563 ppm in paper) | TAPPI T-487 rating Week 2 (mold [4]; 563 ppm in paper) | TAPPI T-487 rating Week 3 (mold [4]; 563 ppm in paper) | TAPPI T-487 rating Week 1 (mold [4]; 5389 ppm in paper) | TAPPI T-487 rating Week 2 (mold [4]; 5389 ppm in paper) | TAPPI T-487 rating Week 3 (mold [4]; 5389 ppm in paper)
3 (75% mold coverage): TAPPI T-487 rating Week 3 (mold [1]; 386 ppm in paper sheet) | TAPPI T-487 rating Week 3 (mold [1]; 553 ppm in paper sheet)
4-4.5 times: DIMTS active needed in the paper sheet relative to OIT before no mold growth was observed throughout the entire testing period (mold [2]; approximately, based on tables 1 and 2 (ASTM 3273 and TAPPI T-487))
8 (20% mold coverage): ASTM 3273 rating Week 2 (mold [2]; 370 ppm in paper sheet) | ASTM 3273 rating Week 2 (mold [2]; 660 ppm in paper sheet)
4 (Heavy growth (60-complete coverage)): Mold Resistance Rating Week 2 A (mold [3]; 281 ppm active in handsheet) | Mold Resistance Rating Week 2 B (mold [3]; 281 ppm active in handsheet) | Mold Resistance Rating Week 2 A (mold [3]; 297 ppm active in handsheet) | Mold Resistance Rating Week 2 B (mold [3]; 297 ppm active in handsheet)
2 (50% mold coverage): TAPPI T-487 rating Week 2 (mold [1]; 386 ppm in paper sheet) | TAPPI T-487 rating Week 2 (mold [1]; 553 ppm in paper sheet) | TAPPI T-487 rating Week 1 (mold [4]; 43 ppm in paper)
1 (Traces of growth (<10%)): Mold Resistance Rating Week 1 A (mold [3]; 281 ppm active in handsheet) | Mold Resistance Rating Week 1 B (mold [3]; 281 ppm active in handsheet) | Mold Resistance Rating Week 1 A (mold [3]; 297 ppm active in handsheet) | Mold Resistance Rating Week 1 B (mold [3]; 297 ppm active in handsheet) | Mold Resistance Rating Week 2 A (mold [3]; 354 ppm active in handsheet) | Mold Resistance Rating Week 2 B (mold [3]; 354 ppm active in handsheet)
0 (100% mold coverage): ASTM 3273 rating Week 3 (mold [2]; 370 ppm in paper sheet) | ASTM 3273 rating Week 4 (mold [2]; 370 ppm in paper sheet)
6 (40% mold coverage): ASTM 3273 rating Week 4 (mold [2]; 660 ppm in paper sheet)
4 (100% mold coverage): TAPPI T-487 rating Week 2 (mold [4]; 43 ppm in paper) | TAPPI T-487 rating Week 3 (mold [4]; 43 ppm in paper)

— patent US8362051B2, “Mold-resistant wallboard” (Rohm and Haas Company, priority 2007, dated 2013)
